# Reference: article PMC4710522, “A Novel Triazolopyridine-Based Spleen Tyrosine Kinase Inhibitor That Arrests Joint Inflammation” (PLoS ONE, 2016)
# Where two headings read alike, the source gives them in different places.
# How the values were obtained:
# [1] = biological target: T1, FGFR4_h (Homo sapiens, UniProt P22455); assay: SelectScreen kinase assay; type: biochemical; settings: KM ATP, read-out: % control
# T1 construct: purchased Life Technologies (Invitrogen) SelectScreen, Z'-LYTE / Adapta
# T1 sequence (P22455 22-802): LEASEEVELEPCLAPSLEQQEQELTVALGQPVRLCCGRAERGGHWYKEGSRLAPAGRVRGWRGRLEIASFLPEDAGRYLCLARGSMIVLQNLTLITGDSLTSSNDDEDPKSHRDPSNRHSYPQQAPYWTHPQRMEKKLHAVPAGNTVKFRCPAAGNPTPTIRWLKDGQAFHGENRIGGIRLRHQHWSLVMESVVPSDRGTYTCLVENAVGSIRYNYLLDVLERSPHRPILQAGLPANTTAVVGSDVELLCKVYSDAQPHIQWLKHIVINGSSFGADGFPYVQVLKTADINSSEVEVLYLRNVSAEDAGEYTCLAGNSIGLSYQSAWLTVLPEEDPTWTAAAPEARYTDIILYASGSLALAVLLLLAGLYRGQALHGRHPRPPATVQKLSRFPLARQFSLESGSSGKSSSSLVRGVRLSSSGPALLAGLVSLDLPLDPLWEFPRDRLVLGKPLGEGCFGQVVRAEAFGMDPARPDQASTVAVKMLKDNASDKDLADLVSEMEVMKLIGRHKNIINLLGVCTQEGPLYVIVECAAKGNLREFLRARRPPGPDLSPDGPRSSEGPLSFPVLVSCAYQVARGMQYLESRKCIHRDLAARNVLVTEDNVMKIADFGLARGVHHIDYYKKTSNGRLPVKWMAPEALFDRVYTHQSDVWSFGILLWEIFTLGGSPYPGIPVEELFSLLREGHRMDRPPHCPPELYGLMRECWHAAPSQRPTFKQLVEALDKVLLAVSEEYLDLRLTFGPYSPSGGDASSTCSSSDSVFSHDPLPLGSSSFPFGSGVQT
# [2] = biological target: T2, Adenosine A1 (Homo sapiens, UniProt P30542); assay: receptor, ion channel, transporter binding panel (CEREP)
# T2 construct: CEREP (contract assay)
# Experimental: (§1) Syk kinase mode of inhibition studies, including parameters described in Fig 1, were conducted on the LC3000 platform by Caliper Life Sciences (Hopkinton, MA) according to standard protocols developed by the supplier. […] Non-kinase enzyme assays and GPCR, ion channel, and transporter binding assays were run by CEREP (France). Non-GLP manual patch clamp hERG assays were run by ChanTest (Cleveland, Ohio). Vivid® Assay kits (Life Technologies) were used to measure the cytochrome P450 inhibition of the compound against CYP3A, CYP2C9, CYP2C19, CYP2D6, and CYP1A2, as described.
# [3] = biological target: T3, Adenosine A3 (Homo sapiens, UniProt P0DMS8); assay: as above
# T3 construct: CEREP (contract assay)
# Experimental: as §1
# [4] = biological target: T4, Adenosine A2a (Homo sapiens, UniProt P29274); assay: as above
# T4 construct: CEREP (contract assay)
# Experimental: as §1
# [5] = biological target: T5, Cyp3A4 (Homo sapiens, UniProt P08684); assay: Vivid cytochrome P450 inhibition assay; type: in vitro ADME; settings: data not shown
# T5 construct: purchased Life Technologies (Vivid Assay kits)
# Experimental: as §1
# [6] = biological target: T6, Cyp2C9 (Homo sapiens, UniProt P11712); assay: Vivid cytochrome P450 inhibition assay; type: in vitro ADME; settings: data not shown
# T6 construct: purchased Life Technologies (Vivid Assay kits)
# T6 sequence (P11712 whole entry): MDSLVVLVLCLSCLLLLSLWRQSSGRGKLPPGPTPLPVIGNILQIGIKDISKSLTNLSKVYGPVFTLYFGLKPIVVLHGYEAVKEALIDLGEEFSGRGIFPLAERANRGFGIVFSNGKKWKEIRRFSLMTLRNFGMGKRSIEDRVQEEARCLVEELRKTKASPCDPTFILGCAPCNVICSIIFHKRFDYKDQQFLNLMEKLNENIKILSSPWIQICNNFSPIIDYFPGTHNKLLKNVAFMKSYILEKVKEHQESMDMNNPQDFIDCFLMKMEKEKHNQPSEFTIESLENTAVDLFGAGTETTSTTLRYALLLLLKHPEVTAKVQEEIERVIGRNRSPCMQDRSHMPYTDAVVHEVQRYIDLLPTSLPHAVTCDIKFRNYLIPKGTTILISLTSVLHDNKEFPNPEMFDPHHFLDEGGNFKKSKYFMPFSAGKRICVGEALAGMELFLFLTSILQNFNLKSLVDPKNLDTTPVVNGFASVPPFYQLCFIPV
# Experimental: as §1
# [7] = biological target: T7, Cyp2D6 (Homo sapiens, UniProt P10635); assay: Vivid cytochrome P450 inhibition assay; type: in vitro ADME; settings: data not shown
# T7 construct: purchased Life Technologies (Vivid Assay kits)
# Experimental: as §1
# [8] = biological target: T8, Cyp1A2 (Homo sapiens, UniProt P05177); assay: Vivid cytochrome P450 inhibition assay; type: in vitro ADME; settings: data not shown
# T8 construct: purchased Life Technologies (Vivid Assay kits)
# Experimental: as §1
# [9] = biological target: T9, Cyp2C19 (Homo sapiens, UniProt P33261); assay: Vivid cytochrome P450 inhibition assay; type: in vitro ADME; settings: data not shown
# T9 construct: purchased Life Technologies (Vivid Assay kits)
# Experimental: as §1
# [10] = biological target: T10, MAPKAP-K2_h (Homo sapiens, UniProt P49137); assay: SelectScreen kinase assay; type: biochemical; settings: KM ATP, read-out: % control
# T10 construct: purchased Life Technologies (Invitrogen) SelectScreen, Z'-LYTE / Adapta
# Summary of the method: (§2)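 Z'-Lyte or Adapta format; compound fixed at 3 µM; ATP at KM, 10 µM or 100 µM as indicated; read-out % control relative to uninhibited DMSO wells.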
# [11] = biological target: T11, ALK_h (Homo sapiens, UniProt Q9UM73); assay: SelectScreen kinase assay; type: biochemical; settings: KM ATP, read-out: % control
# T11 construct: purchased Life Technologies (Invitrogen) SelectScreen, Z'-LYTE / Adapta
# Summary of the method: as §2
# [12] = biological target: T12, ErbB4_h (Homo sapiens, UniProt Q15303); assay: SelectScreen kinase assay; type: biochemical; settings: KM ATP, read-out: % control
# T12 construct: purchased Life Technologies (Invitrogen) SelectScreen, Z'-LYTE / Adapta
# Summary of the method: as §2
# [13] = biological target: T13, MAPK1_h (Homo sapiens, UniProt P28482); assay: SelectScreen kinase assay; type: biochemical; settings: KM ATP, read-out: % control
# T13 construct: purchased Life Technologies (Invitrogen) SelectScreen, Z'-LYTE / Adapta
# T13 sequence (P28482 whole entry): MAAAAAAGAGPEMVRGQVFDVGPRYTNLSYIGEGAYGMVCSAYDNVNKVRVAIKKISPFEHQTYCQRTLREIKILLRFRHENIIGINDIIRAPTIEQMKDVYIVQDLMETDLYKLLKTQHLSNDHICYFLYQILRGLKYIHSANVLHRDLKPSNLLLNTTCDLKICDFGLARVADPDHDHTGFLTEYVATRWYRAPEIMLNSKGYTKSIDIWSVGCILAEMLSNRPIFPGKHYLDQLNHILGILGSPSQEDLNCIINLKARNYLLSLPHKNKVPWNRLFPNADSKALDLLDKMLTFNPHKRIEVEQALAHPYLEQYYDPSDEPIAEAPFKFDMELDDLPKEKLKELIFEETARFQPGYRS
# Summary of the method: as §2
# [14] = biological target: T14, Itk_h (Homo sapiens, UniProt Q08881); assay: SelectScreen kinase assay; type: biochemical; settings: KM ATP, read-out: % control
# T14 construct: purchased Life Technologies (Invitrogen) SelectScreen, Z'-LYTE / Adapta
# Summary of the method: as §2
# [15] = biological target: T15, BrSK1_h (Homo sapiens, UniProt Q8TDC3); assay: SelectScreen kinase assay; type: biochemical; settings: KM ATP, read-out: % control
# T15 construct: purchased Life Technologies (Invitrogen) SelectScreen, Z'-LYTE / Adapta
# Summary of the method: as §2
# [16] = biological target: T16, EphB1_h (Homo sapiens, UniProt P54762); assay: SelectScreen kinase assay; type: biochemical; settings: KM ATP, read-out: % control
# T16 construct: purchased Life Technologies (Invitrogen) SelectScreen, Z'-LYTE / Adapta
# Summary of the method: as §2
# [17] = biological target: T17, JNK1-alpha1_h (Homo sapiens, UniProt P45983); assay: SelectScreen kinase assay; type: biochemical; settings: 100 µM ATP, read-out: % control
# T17 construct: purchased Life Technologies (Invitrogen) SelectScreen, Z'-LYTE / Adapta
# T17 sequence (P45983 1-384 isoform P45983-2): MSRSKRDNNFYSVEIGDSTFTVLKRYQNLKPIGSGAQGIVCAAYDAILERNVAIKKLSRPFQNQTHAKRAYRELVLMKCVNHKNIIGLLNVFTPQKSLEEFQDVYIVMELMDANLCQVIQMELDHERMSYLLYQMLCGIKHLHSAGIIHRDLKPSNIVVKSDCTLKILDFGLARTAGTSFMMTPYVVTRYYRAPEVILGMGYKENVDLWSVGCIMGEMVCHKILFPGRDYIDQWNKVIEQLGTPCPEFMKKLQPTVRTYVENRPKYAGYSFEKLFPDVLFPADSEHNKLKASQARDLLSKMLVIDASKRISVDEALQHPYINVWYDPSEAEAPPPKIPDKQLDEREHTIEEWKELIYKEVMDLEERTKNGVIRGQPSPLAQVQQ
# Summary of the method: as §2
# [18] = biological target: T18, Tie2_h (Homo sapiens, UniProt Q02763); assay: SelectScreen kinase assay; type: biochemical; settings: KM ATP, read-out: % control
# T18 construct: purchased Life Technologies (Invitrogen) SelectScreen, Z'-LYTE / Adapta
# T18 sequence (Q02763 23-1124): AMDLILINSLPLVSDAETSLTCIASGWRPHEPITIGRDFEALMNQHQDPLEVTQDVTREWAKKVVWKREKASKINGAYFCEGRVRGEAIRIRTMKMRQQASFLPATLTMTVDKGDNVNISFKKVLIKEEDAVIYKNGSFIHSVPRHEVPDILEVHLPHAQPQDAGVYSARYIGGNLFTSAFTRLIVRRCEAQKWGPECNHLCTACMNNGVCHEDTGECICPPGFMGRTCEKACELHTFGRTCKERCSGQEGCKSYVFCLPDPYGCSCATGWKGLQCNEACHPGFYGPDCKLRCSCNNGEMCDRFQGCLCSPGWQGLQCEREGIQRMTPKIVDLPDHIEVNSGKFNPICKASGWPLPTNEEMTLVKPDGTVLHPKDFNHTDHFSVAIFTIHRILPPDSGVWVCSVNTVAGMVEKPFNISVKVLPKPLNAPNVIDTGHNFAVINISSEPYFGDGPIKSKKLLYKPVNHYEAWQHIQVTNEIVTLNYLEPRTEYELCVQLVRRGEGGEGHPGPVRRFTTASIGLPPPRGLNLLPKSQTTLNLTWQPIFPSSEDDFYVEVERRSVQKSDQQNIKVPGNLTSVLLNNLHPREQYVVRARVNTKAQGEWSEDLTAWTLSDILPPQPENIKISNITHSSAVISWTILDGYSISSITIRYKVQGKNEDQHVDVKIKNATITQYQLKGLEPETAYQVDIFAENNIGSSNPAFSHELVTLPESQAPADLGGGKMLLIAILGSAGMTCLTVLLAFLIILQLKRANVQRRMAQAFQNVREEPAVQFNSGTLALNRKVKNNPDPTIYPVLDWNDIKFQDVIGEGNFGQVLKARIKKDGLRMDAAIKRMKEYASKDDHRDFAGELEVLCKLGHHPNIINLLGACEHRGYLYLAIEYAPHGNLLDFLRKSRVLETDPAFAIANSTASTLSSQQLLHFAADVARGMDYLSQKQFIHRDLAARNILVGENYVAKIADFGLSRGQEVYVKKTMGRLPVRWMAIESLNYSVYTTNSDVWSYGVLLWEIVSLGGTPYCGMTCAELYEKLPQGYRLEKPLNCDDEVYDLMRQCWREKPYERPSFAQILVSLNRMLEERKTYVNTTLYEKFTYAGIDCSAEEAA
# Summary of the method: as §2
# [19] = biological target: Syk_h (Homo sapiens, UniProt P43405); assay: SelectScreen kinase assay; type: biochemical
# Summary of the method: as §2
# [20] = biological target: T19, EGFR_h (Homo sapiens, UniProt P00533); assay: SelectScreen kinase assay; type: biochemical; settings: KM ATP, read-out: % control
# T19 construct: purchased Life Technologies (Invitrogen) SelectScreen, Z'-LYTE / Adapta
# Summary of the method: as §2
# [21] = biological target: T20, p38-delta_h (Homo sapiens, UniProt O15264); assay: SelectScreen kinase assay; type: biochemical; settings: KM ATP, read-out: % control
# T20 construct: purchased Life Technologies (Invitrogen) SelectScreen, Z'-LYTE / Adapta
# Summary of the method: as §2
# [22] = biological target: T21, Met_h (Homo sapiens, UniProt P08581); assay: SelectScreen kinase assay; type: biochemical; settings: KM ATP, read-out: % control
# T21 construct: purchased Life Technologies (Invitrogen) SelectScreen, Z'-LYTE / Adapta
# Summary of the method: as §2
# [23] = biological target: T22, PKB-beta_h (Homo sapiens, UniProt P31751); assay: SelectScreen kinase assay; type: biochemical; settings: KM ATP, read-out: % control
# T22 construct: purchased Life Technologies (Invitrogen) SelectScreen, Z'-LYTE / Adapta
# Summary of the method: as §2
# [24] = biological target: T23, FGFR1_h (Homo sapiens, UniProt P11362); assay: SelectScreen kinase assay; type: biochemical; settings: KM ATP, read-out: % control
# T23 construct: purchased Life Technologies (Invitrogen) SelectScreen, Z'-LYTE / Adapta
# T23 sequence (P11362 22-822): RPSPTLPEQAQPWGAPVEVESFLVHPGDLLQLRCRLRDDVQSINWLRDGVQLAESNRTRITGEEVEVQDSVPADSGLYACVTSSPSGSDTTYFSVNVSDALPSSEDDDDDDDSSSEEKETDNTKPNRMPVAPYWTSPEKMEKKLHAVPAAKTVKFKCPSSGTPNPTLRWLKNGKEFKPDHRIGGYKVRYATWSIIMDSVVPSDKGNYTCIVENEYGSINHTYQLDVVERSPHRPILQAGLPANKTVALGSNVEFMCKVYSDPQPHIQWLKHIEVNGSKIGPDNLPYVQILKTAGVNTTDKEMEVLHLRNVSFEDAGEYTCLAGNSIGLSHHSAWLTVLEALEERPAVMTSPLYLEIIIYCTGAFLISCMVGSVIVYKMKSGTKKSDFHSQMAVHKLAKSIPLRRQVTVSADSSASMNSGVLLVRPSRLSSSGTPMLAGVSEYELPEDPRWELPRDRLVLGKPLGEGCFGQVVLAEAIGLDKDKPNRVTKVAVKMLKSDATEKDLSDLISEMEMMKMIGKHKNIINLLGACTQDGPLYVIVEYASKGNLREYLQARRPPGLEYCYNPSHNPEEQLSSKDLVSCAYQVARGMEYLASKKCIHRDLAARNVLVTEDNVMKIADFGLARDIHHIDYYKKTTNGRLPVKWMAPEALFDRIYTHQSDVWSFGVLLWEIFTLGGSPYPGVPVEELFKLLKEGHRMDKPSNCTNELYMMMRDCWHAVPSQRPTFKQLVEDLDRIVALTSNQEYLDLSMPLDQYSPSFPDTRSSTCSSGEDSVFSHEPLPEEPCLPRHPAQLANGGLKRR
# Summary of the method: as §2
# [25] = biological target: JAK2_h (Homo sapiens, UniProt O60674); assay: SelectScreen kinase assay; type: biochemical
# Sequence of JAK2_h (O60674 whole entry): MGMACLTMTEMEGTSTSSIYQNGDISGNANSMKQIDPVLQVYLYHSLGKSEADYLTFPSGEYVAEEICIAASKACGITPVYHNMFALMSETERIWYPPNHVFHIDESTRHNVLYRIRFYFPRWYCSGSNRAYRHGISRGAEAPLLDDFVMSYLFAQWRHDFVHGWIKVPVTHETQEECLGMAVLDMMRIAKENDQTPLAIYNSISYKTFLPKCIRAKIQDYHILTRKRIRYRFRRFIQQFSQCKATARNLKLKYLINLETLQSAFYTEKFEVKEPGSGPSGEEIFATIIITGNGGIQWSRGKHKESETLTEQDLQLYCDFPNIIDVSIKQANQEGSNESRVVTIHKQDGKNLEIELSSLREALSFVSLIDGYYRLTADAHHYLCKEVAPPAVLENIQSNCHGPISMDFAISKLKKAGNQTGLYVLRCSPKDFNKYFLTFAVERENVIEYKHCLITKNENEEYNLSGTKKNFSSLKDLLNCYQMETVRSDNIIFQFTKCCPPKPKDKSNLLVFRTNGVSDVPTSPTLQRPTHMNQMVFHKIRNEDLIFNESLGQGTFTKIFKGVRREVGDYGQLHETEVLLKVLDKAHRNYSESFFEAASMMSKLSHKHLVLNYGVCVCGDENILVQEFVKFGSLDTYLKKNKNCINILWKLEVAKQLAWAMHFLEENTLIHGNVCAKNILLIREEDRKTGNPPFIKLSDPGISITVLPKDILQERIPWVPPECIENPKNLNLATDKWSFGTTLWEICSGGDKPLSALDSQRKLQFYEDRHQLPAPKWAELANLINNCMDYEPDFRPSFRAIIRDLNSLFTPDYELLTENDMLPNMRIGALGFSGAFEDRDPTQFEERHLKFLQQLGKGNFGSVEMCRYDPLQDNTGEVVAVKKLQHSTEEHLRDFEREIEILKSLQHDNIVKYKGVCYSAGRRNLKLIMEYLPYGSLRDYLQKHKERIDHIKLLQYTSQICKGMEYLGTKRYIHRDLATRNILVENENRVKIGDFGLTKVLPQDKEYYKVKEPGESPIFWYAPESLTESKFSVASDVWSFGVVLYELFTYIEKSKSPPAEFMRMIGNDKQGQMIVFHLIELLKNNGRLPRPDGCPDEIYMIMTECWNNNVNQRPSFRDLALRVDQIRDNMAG
# Summary of the method: as §2
# [26] = biological target: T24, PrKX_h (Homo sapiens, UniProt P51817); assay: SelectScreen kinase assay; type: biochemical; settings: KM ATP, read-out: % control
# T24 construct: purchased Life Technologies (Invitrogen) SelectScreen, Z'-LYTE / Adapta
# Summary of the method: as §2
# [27] = biological target: T25, DCAMKL2_h (Homo sapiens, UniProt Q8N568); assay: SelectScreen kinase assay; type: biochemical; settings: KM ATP, read-out: % control
# T25 construct: purchased Life Technologies (Invitrogen) SelectScreen, Z'-LYTE / Adapta
# Summary of the method: as §2
# [28] = biological target: T26, MATK_h (Homo sapiens, UniProt P42679); assay: SelectScreen kinase assay; type: biochemical; settings: KM ATP, read-out: % control
# T26 construct: purchased Life Technologies (Invitrogen) SelectScreen, Z'-LYTE / Adapta
# Summary of the method: as §2
# [29] = biological target: T27, MAPK3_h (Homo sapiens, UniProt P27361); assay: SelectScreen kinase assay; type: biochemical; settings: KM ATP, read-out: % control
# T27 construct: purchased Life Technologies (Invitrogen) SelectScreen, Z'-LYTE / Adapta
# Summary of the method: as §2
# [30] = biological target: T28, CDK5_p25_h (Homo sapiens, UniProt Q00535); assay: SelectScreen kinase assay; type: biochemical; settings: KM ATP, read-out: % control
# T28 construct: purchased Life Technologies (Invitrogen) SelectScreen, Z'-LYTE / Adapta
# Summary of the method: as §2
# [31] = rat CIA, cited from earlier work
# [32] = test system: proinflammatory analytes in paw tissue; settings: cited from earlier work
# [33] = 3 µM, KM ATP, read-out: % control
# [34] = 10-point dose-response, commercial vendor
smiles,measurement,setting,value
"c1cc(CC2CCOCC2)n2nc(Nc3ccc4c(NC5CCOCC5)n[nH]c4c3)nc2c1 [CC-509, [3-(2H-3,4,5,6-tetrahydropyran-4-ylamino)(1H-indazol-6-yl)][5-(2H-3,4,5,6-tetrahydropyran-4-ylmethyl)(2H-1,2,4-triazolo[1,5-a]pyridin-2-yl)]amine]",remaining activity at 3 µM,[1],68%
same,inhibition at 10 µM,[2],89%
same,inhibition at 10 µM,[3],84%
same,inhibition at 10 µM,[4],96%
same,inhibition of Cyp450 activity,[5],did not inhibit
same,inhibition of Cyp450 activity,[6],did not inhibit
same,inhibition of Cyp450 activity,[7],did not inhibit
same,inhibition of Cyp450 activity,[8],did not inhibit
same,inhibition of Cyp450 activity,[9],did not inhibit
same,remaining activity at 3 µM,[10],96%
same,remaining activity at 3 µM,[11],45%
same,remaining activity at 3 µM,[12],91%
same,remaining activity at 3 µM,[13],94%
same,remaining activity at 3 µM,[14],91%
same,remaining activity at 3 µM,[15],65%
same,remaining activity at 3 µM,[16],41%
same,remaining activity at 3 µM,[17],88%
same,remaining activity at 3 µM,[18],87%
same,remaining activity at 3 µM,[19]; [33],-2%
same,IC50,[19]; [34],0.0273 µM
same,remaining activity at 3 µM,[20],97%
same,remaining activity at 3 µM,[21],82%
same,remaining activity at 3 µM,[22],66%
same,remaining activity at 3 µM,[23],98%
same,remaining activity at 3 µM,[24],69%
same,remaining activity at 3 µM,[25]; [33],4%
same,IC50,[25]; [34],0.0189 µM
same,remaining activity at 3 µM,[26],95%
same,remaining activity at 3 µM,[27],98%
same,remaining activity at 3 µM,[28],102%
same,remaining activity at 3 µM,[29],90%
same,remaining activity at 3 µM,[30],82%
"COc1cc(Nc2ncc(F)c(Nc3ccc4c(n3)NC(=O)C(C)(C)O4)n2)cc(OC)c1OC [R406, reference compound]",exposure following a single dose,[31]; 10 mg/kg b.i.d.,15 µM·h
same,exposure following a single dose,[31]; 30 mg/kg b.i.d.,38 µM·h
same,"expression of MCP-1, KC, IL-6 and IL-1β in the CIA model",[32],inhibited
